According to ChEMBL document CHEMBL5233249, “Recent advancements in the development of heterocyclic anti-inflammatory agents” (Eur J Med Chem, 2020):
pIC50: −log10 of the molar value.

Assays:
[1] = Anti-inflammatory activity assessed as protein denaturation using bovine serum albumin at 500 uM relative to control; type: functional
[2] = Anti-inflammatory activity assessed as protein denaturation using bovine serum albumin at 250 uM relative to control; type: functional
[3] = Anti-inflammatory activity assessed as protein denaturation using egg albumin at 250 uM relative to control; type: functional
[4] = Anti-inflammatory activity assessed as protein denaturation using bovine serum albumin at 100 uM relative to control; type: functional
[5] = Anti-inflammatory activity assessed as protein denaturation using egg albumin at 500 uM relative to control; type: functional
[6] = Anti-inflammatory activity assessed as protein denaturation using egg albumin at 100 uM relative to control; type: functional
Rattus norvegicus [7] = experiment: Anti-ulcerative activity in Carrageenan-induced Sprague-Dawley rat ulcer model assessed as inhibition of ulcer index at 10 mg/kg,po; type: functional
Rattus norvegicus [8] = experiment: Anti-inflammatory activity against carrageenan-induced Albino Wistar rat paw edema model assessed as inhibition of rat paw edema at 50 mg/kg, po after 3 hrs relative to control; type: functional; parameters: scale not given: the % may be the effect or the level left
Rattus norvegicus [9] = experiment: Anti-inflammatory activity in Carrageenan-induced-Wistar albino rat model assessed as reduction in volume of paw edema measured after 3 hrs; type: functional
Mus musculus [10] = experiment: Anti-inflammatory activity against dimethylbenzene-induced auricular edema Kunming mouse model assessed as inhibition of ear edema at 100 mg/kg, po administered once daily relative to control; type: functional; parameters: scale not given: the % may be the effect or the level left
Mus musculus [11] = experiment: Anti-inflammatory activity against dimethylbenzene-induced auricular edema Kunming mouse model assessed as inhibition of ear edema at 50 mg/kg, po administered once daily relative to control; type: functional; parameters: scale not given: the % may be the effect or the level left
Rattus norvegicus [12] = experiment: Anti-inflammatory activity in Carrageenan-induced rat paw edema in Wistar rat assessed as reduction in inhibition of edema measured after 4 hrs relative to control; type: functional; parameters: scale not given: the % may be the effect or the level left
[13] = Inhibition of MAPK p38 (unknown origin); parameters: species or system Homo sapiens
[14] = target: Tumor necrosis factor (Homo sapiens) (UniProt P01375); experiment: Inhibition of TNF-alpha (unknown origin) relative to control; settings: concentration not given here
Chain of Tumor necrosis factor (Homo sapiens) (P01375 whole entry, looked up): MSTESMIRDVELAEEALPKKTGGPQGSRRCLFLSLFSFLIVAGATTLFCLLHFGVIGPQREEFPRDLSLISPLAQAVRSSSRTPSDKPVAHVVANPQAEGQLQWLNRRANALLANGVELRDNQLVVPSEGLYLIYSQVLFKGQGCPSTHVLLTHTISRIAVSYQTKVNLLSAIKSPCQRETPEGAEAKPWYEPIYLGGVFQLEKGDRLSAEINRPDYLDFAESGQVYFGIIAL

[15] = Antioxidant activity assessed as DPPH radical scavenging activity incubated for 20 mins relative to control; type: functional
[16] = Anti-inflammatory activity assessed as protein denaturation using bovine serum albumin relative to control; type: functional
RAW264.7 = experiment: Anti-inflammatory activity in mouse RAW264.7 cells assessed as inhibition of LPS-induced reduction in cytokine levels relative to control; type: functional; parameters: scale not given: the % may be the effect or the level left
Rattus norvegicus [17] = experiment: Anti-inflammatory activity against Carrageenan-induced paw edema in PO dosed Wistar albino rat assessed as fold increase in inhibition of […] measured after 1 hr relative to celecoxib; type: functional
Rattus norvegicus [18] = experiment: Anti-inflammatory activity against formalin-induced foot paw edema in PO dosed rat at 10 mg/kg assessed as inhibition of edema measured after 4 hr relative to control; type: functional
[19] = target: T1, Prostaglandin G/H synthase 2 (Homo sapiens, UniProt P35354); experiment: Inhibition of COX-2 (unknown origin) at 10 uM
T1 sequence (P35354 whole entry): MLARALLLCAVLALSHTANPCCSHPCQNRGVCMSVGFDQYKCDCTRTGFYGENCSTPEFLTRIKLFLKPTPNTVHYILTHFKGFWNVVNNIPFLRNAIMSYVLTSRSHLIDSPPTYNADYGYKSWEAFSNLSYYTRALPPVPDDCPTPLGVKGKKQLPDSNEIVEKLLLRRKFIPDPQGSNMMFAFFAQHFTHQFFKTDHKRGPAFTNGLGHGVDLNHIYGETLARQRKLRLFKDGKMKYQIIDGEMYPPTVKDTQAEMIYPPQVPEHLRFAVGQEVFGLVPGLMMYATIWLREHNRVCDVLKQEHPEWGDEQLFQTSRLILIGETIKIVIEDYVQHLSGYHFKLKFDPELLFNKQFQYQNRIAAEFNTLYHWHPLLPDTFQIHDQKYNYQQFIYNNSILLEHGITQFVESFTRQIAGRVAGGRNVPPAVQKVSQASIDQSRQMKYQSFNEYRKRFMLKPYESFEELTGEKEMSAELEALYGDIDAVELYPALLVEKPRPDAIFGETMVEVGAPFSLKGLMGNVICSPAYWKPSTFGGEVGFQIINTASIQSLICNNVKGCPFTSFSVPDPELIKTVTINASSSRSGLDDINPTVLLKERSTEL

Mus musculus [20] = experiment: Anti-inflammatory activity in Carrageenan-induced paw edema mouse model assessed as inhibition of granuloma measured after 24 hrs relative to control; type: functional
[21] = target: Prostaglandin G/H synthase 1 (Homo sapiens, UniProt P23219); experiment: Inhibition of COX-1 (unknown origin) at 40 uM relative to control
Chain of Prostaglandin G/H synthase 1 (P23219 whole entry): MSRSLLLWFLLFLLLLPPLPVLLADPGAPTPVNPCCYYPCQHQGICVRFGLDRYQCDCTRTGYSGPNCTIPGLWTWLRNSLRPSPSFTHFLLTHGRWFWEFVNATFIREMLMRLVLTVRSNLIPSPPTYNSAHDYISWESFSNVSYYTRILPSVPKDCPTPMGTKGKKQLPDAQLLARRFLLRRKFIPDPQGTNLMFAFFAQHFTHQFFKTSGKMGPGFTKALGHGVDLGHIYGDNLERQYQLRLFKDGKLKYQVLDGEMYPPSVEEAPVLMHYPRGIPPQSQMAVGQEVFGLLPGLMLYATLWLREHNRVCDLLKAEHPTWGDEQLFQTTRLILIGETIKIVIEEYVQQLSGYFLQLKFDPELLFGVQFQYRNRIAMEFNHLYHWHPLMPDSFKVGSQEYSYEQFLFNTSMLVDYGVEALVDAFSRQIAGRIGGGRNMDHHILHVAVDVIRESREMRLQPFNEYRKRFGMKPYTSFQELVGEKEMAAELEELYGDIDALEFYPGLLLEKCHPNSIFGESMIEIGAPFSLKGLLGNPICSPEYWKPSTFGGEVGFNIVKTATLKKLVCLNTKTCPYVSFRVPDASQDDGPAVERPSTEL

[22] = target: T1, Prostaglandin G/H synthase 2; experiment: Inhibition of COX-2 (unknown origin) assessed as inhibition at 10 uM
Rattus norvegicus [23] = experiment: Anti-inflammatory activity against formalin-induced foot paw edema in Wistar rat at 5 mg/kg, po assessed as inhibition of edema measured after 4 hr relative to control; type: functional
[24] = target: T1, Prostaglandin G/H synthase 2; experiment: Inhibition of COX-2 (unknown origin) at 0.1 uM
Rattus norvegicus [25] = experiment: Anti-inflammatory activity in Carrageenan-induced paw edema in Wistar albino rat assessed as inhibition of paw edema measured after 6 hr relative to control; type: functional
Rattus norvegicus [26] = experiment: Anti-inflammatory activity in Carrageenan-induced paw edema in Wistar albino rat assessed as inhibition of paw edema measured after 1 hr relative to control; type: functional
Rattus norvegicus [27] = experiment: Anti-inflammatory activity in Carrageenan-induced paw edema in Wistar albino rat assessed as inhibition of paw edema measured after 2 hr relative to control; type: functional
Rattus norvegicus [28] = experiment: Anti-inflammatory activity in Carageenan-induced paw edema Wistar rat model assessed as reduction in paw edema volume relative to control; type: functional; parameters: scale not given: the % may be the effect or the level left
Rattus norvegicus [29] = experiment: Anti-inflammatory activity against formalin-induced foot paw edema in PO dosed rat at 10 mg/kg assessed as inhibition of edema measured after 5 hr relative to control; type: functional; parameters: scale not given: the % may be the effect or the level left
Rattus norvegicus [30] = experiment: Anti-ulcerative activity in aspirin induced Wistar rat ulcer model assessed as inhibition of ulcer index at 20 mg/kg,po; type: functional
Rattus norvegicus [31] = experiment: Anti-inflammatory activity in Wistar rat assessed as reduced hind paw edema at 25 mg/kg relative to control; type: functional; parameters: scale not given: the % may be the effect or the level left
Mus musculus [32] = experiment: Anti-inflammatory activity in Carrageenan-induced paw edema in […] mouse model assessed as inhibition of edema at 200 mg/kg, po relative to control; type: functional; parameters: scale not given: the % may be the effect or the level left

For `COc1ccc(NC(=O)c2cc(-c3ccncc3)n[nH]2)cc1`, the Activity [1] was 90%, the Activity [2] was 80% and the Activity [3] was 85%. The Activity [4] was 65%, the Activity [5] was 95% and the Activity [6] was 60%.

With `NS(=O)(=O)c1ccc(N/N=C/c2cn(-c3ccc(S(N)(=O)=O)cc3)nc2-c2ccc(Cl)cc2)cc1` the UI (Rattus norvegicus [7]) was 2.72, the Activity (Rattus norvegicus [8]) was 97.69% and the ED50 (Rattus norvegicus [9]) was 8 mg/kg.

Work on `c1ccc([Se]CC2CC(c3ccccc3)=NO2)cc1` (centres undefined) yielded an Activity (Mus musculus [10]) of 74% and an Activity (Mus musculus [11]) of 51%.

Work on `O=C(Nc1ccc(Cl)cc1)c1ccc(Nc2ncnc3c2cnn3-c2ccccc2)cc1` yielded an Activity (Rattus norvegicus [12]) of 83.73%, a pIC50 [13] of 5.79 and an inhibition [14] of 62.3%. The Activity [15] was 74.9% and the Activity [16] was 82.3%.

Compound `O=c1[nH]c(-c2ccccn2)nc2sc3c(c12)CCCC3` has an Activity (RAW264.7) of 70%.

With `Nc1cc(-c2ccc(Cl)cc2)nn1C1=NC2C(C=NN2c2ccccc2)C(=O)N1c1ccccc1` (centres undefined) the “fold change (FC)” value (Rattus norvegicus [17]) was 8 and the inhibition in vivo at 10 mg/kg (Rattus norvegicus [18]) was 90%.

In the case of `COc1ccc(/C=C2/SC(=S)C(Nc3nc4c(cnn4-c4ccccc4)c(=O)n3-c3ccccc3)C2=O)cc1OC` (centres undefined), the pIC50 [19] was 6.11, the “inhibition (INH)” value (Mus musculus [20]) was 38.2% and the pIC50 [21] was 5.45. For the same compound, the pIC50 [22] was 6.43 and the inhibition in vivo at 5 mg/kg (Rattus norvegicus [23]) was 57.4%.

With `CC(=O)N(CN1C(=O)/C(=C\c2nnc(-c3ccc(-c4ccncc4)cc3)s2)c2ccccc21)C1C(c2ccc(O)cc2)=NNC1S` (centres undefined) the pIC50 [24] was 4.15, the “inhibition (INH)” value (Rattus norvegicus [25]) was 57.14% and the “inhibition (INH)” value (Rattus norvegicus [26]) was 20%. For the same compound, the “inhibition (INH)” value (Rattus norvegicus [27]) was 10.53%.

With `Cc1ccc(-c2cc(C(F)(F)F)nn2-c2ccc(S(N)(=O)=O)cc2)cc1` [CELECOXIB] the UI (Rattus norvegicus [7]) was 2.93, the “inhibition (INH)” value (Mus musculus [20]) was 8.6% and the Activity (Rattus norvegicus [28]) was 87.59%. The Activity (Mus musculus [10]) was 36%, the Activity (Rattus norvegicus [29]) was 69% and the UI (Rattus norvegicus [30]) was 2.99. For the same compound, the inhibition in vivo at 10 mg/kg (Rattus norvegicus [18]) was 46.4%, the Activity (Mus musculus [11]) was 79% and the Activity (Rattus norvegicus [31]) was 57.14%. The inhibition in vivo at 5 mg/kg (Rattus norvegicus [23]) was 46.4% and the Activity (Mus musculus [32]) was 17.5%.
